This note sets out measurements from patent publication US20250290117A1, “MOLECULAR PHENOTYPIC ANTIMICROBIAL SUSCEPTIBILITY TESTING” (priority 2024, published 2025).

The test system of one assay is E. coli. In words: Molecular phenotypic antimicrobial susceptibility test with direct PCR (no extraction DNA purification step). In kind it is cell-based, Escherichia coli. The method, then:
Detection of Molecular Phenotypic Antimicrobial Susceptibility. Disclosed herein are the methods for the detection of phenotypic antimicrobial susceptibility via molecular methods. The present invention describes how a specimen 100 with a known microbial load is incubated and then exposed to a panel of antimicrobial agents to determine sensitivity (prevention of growth) or resistance (allowance of growth) to the specific antimicrobial agents tested utilizing molecular methods.
Sample Collection. Specimens 100 are collected from patients using sterile collection processes that are employed in routine clinical care. Specimens are transported to the testing facility in boric acid preservative. Specimens 100 are subsequently divided into a first sample 104 and a second sample 108.
Preparation of the Specimens for Testing. The specimens 100 are put through a pathogen identification process using PCR technology (e.g., using the first sample 104). The process for pathogen isolation includes steps of harvesting the pathogen (e.g., via centrifugation), isolating pathogen DNA via a DNA isolation and/or purification kit, and performing PCR on the pathogen DNA via PCR components (e.g., primers, enzymes, buffers) as would be known to the skilled artisan. Simultaneously, an additional aliquot of the same specimen (e.g., the second sample 108) is placed with liquid culture media and incubated for 4-6 hours. This aliquot is used for antimicrobial susceptibility testing if indicated based on the pathogen detection results. After pathogen identification is completed and if more than 10,000 cells/mL of bacteria (e.g., eligible bacteria) are detected in the source specimen, the second sample 108 then enters the antimicrobial susceptibility phase of testing. Specimens 100 with lower pathogen loads could also be utilized in the antibiotic susceptibility phase of testing with or without a longer incubation period.
Preparation of Antimicrobial Susceptibility Testing Plates. Antimicrobial solutions are prepared at known concentrations. The specific antimicrobials and their concentrations are selected based on the pathogen of interest and the described antimicrobial resistance breakpoints for that specimen pathogen and antimicrobial combination. These antimicrobials have been selected based on those commonly utilized by healthcare providers in routine clinical care for the specific type of suspected infection. The number and types of antimicrobials utilized can be customized based on the infection source, pathogen detected, patient-specific factors such as allergies or other health conditions (e.g., chronic kidney disease or concurrent medication use), or healthcare provider preferences such as antimicrobial availability or cost.
The antimicrobial solutions are prepared in liquid culture media (such as Muller Hinton Broth) to achieve the desired antimicrobial concentration and are then stored at −80° C. until use. For a given specimen, each antimicrobial is tested at a single or multiple antimicrobial concentration(s) which is its established breakpoints for sensitivity. The antimicrobial solutions are prepared and plated out for each specific pathogen. This allows ease of use on the day of testing after defrosting the plate 112. Table 1, which illustrates the results of molecular phenotypic antimicrobial susceptibility testing when more than one organism is present in the source specimen, provides an example of an antimicrobial plate 112 prepared for this purpose. Of note, control wells containing only culture media are present on all plates 112. This allows for evaluation of pathogen load when no antimicrobial is present.
Specimen Exposure to Antimicrobial Agents. The 1 mL aliquot of the specimen 100 previously mixed with culture media and incubated is obtained. Using optical density measurements as a guide, the specimen 100 is diluted to 0.5 McFarland. […]

The test system of another assay is pathogen of the specimen. In words: Molecular phenotypic antimicrobial susceptibility test with direct PCR at various incubation timepoints (Table 7). The assay is classed as cell-based. The method, then:
Detection of Molecular Phenotypic Antimicrobial Susceptibility. Disclosed herein are the methods for the detection of phenotypic antimicrobial susceptibility via molecular methods. The present invention describes how a specimen 100 with a known microbial load is incubated and then exposed to a panel of antimicrobial agents to determine sensitivity (prevention of growth) or resistance (allowance of growth) to the specific antimicrobial agents tested utilizing molecular methods. Sample Collection. Specimens 100 are collected from patients using sterile collection processes that are employed in routine clinical care. Specimens are transported to the testing facility in boric acid preservative. […] The process for pathogen isolation includes steps of harvesting the pathogen (e.g., via centrifugation), isolating pathogen DNA via a DNA isolation and/or purification kit, and performing PCR on the pathogen DNA via PCR components (e.g., primers, enzymes, buffers) as would be known to the skilled artisan. […] This aliquot is used for antimicrobial susceptibility testing if indicated based on the pathogen detection results. […] Specimens 100 with lower pathogen loads could also be utilized in the antibiotic susceptibility phase of testing with or without a longer incubation period. […] Antimicrobial solutions are prepared at known concentrations. The specific antimicrobials and their concentrations are selected based on the pathogen of interest and the described antimicrobial resistance breakpoints for that specimen pathogen and antimicrobial combination. These antimicrobials have been selected based on those commonly utilized by healthcare providers in routine clinical care for the specific type of suspected infection. The number and types of antimicrobials utilized can be customized based on the infection source, pathogen detected, patient-specific factors such as allergies or other health conditions (e.g., chronic kidney disease or concurrent medication use), or healthcare provider preferences such as antimicrobial availability or cost. The antimicrobial solutions are prepared in liquid culture media (such as Muller Hinton Broth) to achieve the desired antimicrobial concentration and are then stored at −80° C. until use. For a given specimen, each antimicrobial is tested at a single or multiple antimicrobial concentration(s) which is its established breakpoints for sensitivity. The antimicrobial solutions are prepared and plated out for each specific pathogen. […] This allows for evaluation of pathogen load when no antimicrobial is present. Specimen Exposure to Antimicrobial Agents. The 1 mL aliquot of the specimen 100 previously mixed with culture media and incubated is obtained. Using optical density measurements as a guide, the specimen 100 is diluted to 0.5 McFarland. […] Antimicrobial exposure plates are typically placed into an incubator for 12-16 hours. […] Nucleic Acid Amplification of Antimicrobial Agent Exposed Pathogens. The antimicrobial exposure plate is removed after the period of incubation. The specimen then undergoes a purification or lysis step. For example, the specimen may undergo a purification step (e.g., magnetic bead-based or other separation protocol to isolate genetic material). In another example, the specimen may undergo a cell lysis step. For example, buffer (e.g., lysis buffer) may be added and incubated in the thermal cycler for preparation for direct PCR. Next, the specimen may undergo a polymerase chain reaction (PCR) testing protocol, whereby a semi-quantitative PCR method is utilized. This may be completed either with or without a specific extraction protocol step. The pathogens can be individually targeted and detected, or a universal genetic sequence can be utilized to detect the antimicrobial susceptibility of the specimen as a whole. The control wells are utilized as a threshold for determining antimicrobial sensitivity or resistance. […] Antimicrobial Susceptibility Result Interpretation.

Where [1] appears, read: E. coli #1 - WDCM 00090 - 6.2×E3, specimen with <10,000 cells/mL, direct PCR after 16 hours of incubation.
[2] abbreviates: E. coli #1 - WDCM 00090 - 6.2×E3, specimen with <10,000 cells/mL, direct PCR after 16 hours of incubation, Ct at control 13.787.
Setting [3] is: E. coli #2 - WDCM 00090 - 6.2×E3, specimen with <10,000 cells/mL, direct PCR after 16 hours of incubation.
Where [4] appears, read: E. coli #2 - WDCM 00090 - 6.2×E3, specimen with <10,000 cells/mL, direct PCR after 16 hours of incubation, Ct at control 13.46.
Where [5] appears, read: E. coli isolate JJ1887, direct PCR, Ct at control (average) 12.832.
Where [6] appears, read: E. coli isolate JJ1887, direct PCR, at sensitive breakpoint.
[7] abbreviates: E. coli isolate 1189, antibiotic incubation time 4 hours.
The mark [8] stands for this setting: E. coli isolate 1189, antibiotic incubation time 4 hours, control average Ct […].
Where [9] appears, read: E. coli isolate 1189, antibiotic incubation time 6 hours.
[10] abbreviates: E. coli isolate 1189, antibiotic incubation time 6 hours, control average Ct 16.992.
Where [11] appears, read: E. coli isolate 1189, antibiotic incubation time 8 hours.
[12] abbreviates: E. coli isolate 1189, antibiotic incubation time 8 hours, control average Ct […].
Setting [13] is: E. coli isolate 1189, antibiotic incubation time 10 hours.
Setting [14] is: E. coli isolate 1189, antibiotic incubation time 10 hours, control average Ct 15.995.
Where [15] appears, read: E. coli isolate 1189, antibiotic incubation time 12 hours.
Where [16] appears, read: E. coli isolate 1189, antibiotic incubation time 12 hours, control average Ct 15.495.
[17] abbreviates: E. coli isolate 1189, antibiotic incubation time 14 hours.
[18] abbreviates: E. coli isolate 1189, antibiotic incubation time 14 hours, control average Ct 15.826.
Setting [19] is: E. coli isolate 1189, antibiotic incubation time 16 hours.
Where [20] appears, read: E. coli isolate 1189, antibiotic incubation time 16 hours, control average Ct 14.880.

In the case of `CO/N=C(\C(=O)N[C@@H]1C(=O)N2C(C(=O)O)=C(CSc3nc(=O)c(=O)[nH]n3C)CS[C@H]12)c1csc(N)n1` [Ceftriaxone], the “Molecular Antimicrobial Susceptibility Result” value was “Sensitive (Antimicrobial wells with pathogen load detected below the control wells (typically >2 cycle thresholds later) may be reported as Sensitive)” with E. coli (setting [1]); “Sensitive (Antimicrobial wells with pathogen load detected below the control wells (typically >2 cycle thresholds later) may be reported as Sensitive)” in the assay with E. coli (setting [3]); “Resistant” in the assay on E. coli (setting [6]); “Resistant” in the assay with pathogen of the specimen (setting [7]); “Resistant” with pathogen of the specimen (setting [9]); “Resistant” in the assay with pathogen of the specimen (setting [11]). The “Molecular Antimicrobial Susceptibility Result” value in the assay with pathogen of the specimen (setting [13]), with pathogen of the specimen (setting [15]), with pathogen of the specimen (setting [17]) and in the assay on pathogen of the specimen (setting [19]) was “Resistant” in each case. In addition, the “Ct at Sensitive Breakpoint” value was determined as 26.31 in the assay with E. coli (setting [2]); 27.18 with E. coli (setting [4]); 12.353 in the assay with E. coli (setting [5]); 16.185 in the assay on pathogen of the specimen (setting [8]); 16.838 in the assay with pathogen of the specimen (setting [10]); 17.431 in the assay on pathogen of the specimen (setting [12]). Moreover, the “Ct at Sensitive Breakpoint” value in the assay with pathogen of the specimen (setting [14]) was found to be 16.347; in the assay with pathogen of the specimen (setting [16]), 16.258; in the assay with pathogen of the specimen (setting [18]), 14.724; in the assay with pathogen of the specimen (setting [20]) it was 15.840.

Take `CC1(C)S[C@@H]2[C@H](NC(=O)[C@H](N)c3ccccc3)C(=O)N2[C@H]1C(=O)O` [Ampicillin]: the “Molecular Antimicrobial Susceptibility Result” value is “Sensitive (Antimicrobial wells with pathogen load detected below the control wells (typically >2 cycle thresholds later) may be reported as Sensitive)” in the assay with E. coli (setting [1]); “Sensitive (Antimicrobial wells with pathogen load detected below the control wells (typically >2 cycle thresholds later) may be reported as Sensitive)” with E. coli (setting [3]); “Resistant” with E. coli (setting [6]); “Resistant” in the assay on pathogen of the specimen (setting [7]); “Resistant” in the assay with pathogen of the specimen (setting [9]); “Resistant” in the assay with pathogen of the specimen (setting [11]). The “Molecular Antimicrobial Susceptibility Result” value in the assay with pathogen of the specimen (setting [13]), with pathogen of the specimen (setting [15]), with pathogen of the specimen (setting [17]) and in the assay with pathogen of the specimen (setting [19]) was “Resistant” each time. Further, the “Ct at Sensitive Breakpoint” value in the assay on E. coli (setting [2]) came to 25.93; in the assay on E. coli (setting [4]), 26.22; with E. coli (setting [5]), 12.265; in the assay with pathogen of the specimen (setting [10]) it was 15.362; in the assay on pathogen of the specimen (setting [16]) it was 15.183; in the assay on pathogen of the specimen (setting [18]), 15.465. Besides, in the assay with pathogen of the specimen (setting [20]), the “Ct at Sensitive Breakpoint” value came out at 15.036.

Turning to `C[C@@H]1O[C@@H]1P(=O)(O)O` [Fosfomycin], the “Molecular Antimicrobial Susceptibility Result” value in the assay on E. coli (setting [1]) and in the assay with E. coli (setting [3]) was “Sensitive (Antimicrobial wells with pathogen load detected below the control wells (typically >2 cycle thresholds later) may be reported as Sensitive)” in each case. Besides, the “Ct at Sensitive Breakpoint” value with E. coli (setting [2]) amounted to 27.59; in the assay on E. coli (setting [4]) it was 28.41.

As to Ampicillin/Sulbactam, the “Ct at Sensitive Breakpoint” value with E. coli (setting [5]) is recorded as 12.693. The “Molecular Antimicrobial Susceptibility Result” value in the assay on E. coli (setting [6]) is “Resistant”.

Turning to `CO[C@@]1(NC(=O)Cc2cccs2)C(=O)N2C(C(=O)O)=C(COC(N)=O)CS[C@@H]21` [Cefoxitin], the “Molecular Antimicrobial Susceptibility Result” value with pathogen of the specimen (setting [7]), in the assay with pathogen of the specimen (setting [9]), in the assay on pathogen of the specimen (setting [11]), in the assay on pathogen of the specimen (setting [13]), in the assay with pathogen of the specimen (setting [15]) and with pathogen of the specimen (setting [17]) was “Resistant” each time. For the same compound, the “Molecular Antimicrobial Susceptibility Result” value in the assay on pathogen of the specimen (setting [19]) is recorded as “Resistant”. For the same compound, the “Ct at Sensitive Breakpoint” value amounted to 17.798 in the assay on pathogen of the specimen (setting [8]); 15.865 in the assay with pathogen of the specimen (setting [10]); 16.837 in the assay with pathogen of the specimen (setting [12]); 14.899 in the assay with pathogen of the specimen (setting [14]); 15.750 in the assay with pathogen of the specimen (setting [16]); 15.333 with pathogen of the specimen (setting [18]). In the assay on pathogen of the specimen (setting [20]), the “Ct at Sensitive Breakpoint” value is reported as 13.704.
